From patent US10988478B1, “Pyrazolo[1,5a]pyrimidine derivatives as IRAK4 modulators” (Genentech, Inc., priority 2015, dated 2021)

These compounds were tested against human IRAK4 (Homo sapiens (Human), UniProt Q9NWZ3) (assay: IRAK4 kinase inhibition, Transcreener fluorescence polarization ADP assay). Conditions: recombinant full-length His6-IRAK4; 125 uM ATP; 90 min; Ki computed using ATP Km 642 uM.
human IRAK4, sequence (Q9NWZ3 whole entry): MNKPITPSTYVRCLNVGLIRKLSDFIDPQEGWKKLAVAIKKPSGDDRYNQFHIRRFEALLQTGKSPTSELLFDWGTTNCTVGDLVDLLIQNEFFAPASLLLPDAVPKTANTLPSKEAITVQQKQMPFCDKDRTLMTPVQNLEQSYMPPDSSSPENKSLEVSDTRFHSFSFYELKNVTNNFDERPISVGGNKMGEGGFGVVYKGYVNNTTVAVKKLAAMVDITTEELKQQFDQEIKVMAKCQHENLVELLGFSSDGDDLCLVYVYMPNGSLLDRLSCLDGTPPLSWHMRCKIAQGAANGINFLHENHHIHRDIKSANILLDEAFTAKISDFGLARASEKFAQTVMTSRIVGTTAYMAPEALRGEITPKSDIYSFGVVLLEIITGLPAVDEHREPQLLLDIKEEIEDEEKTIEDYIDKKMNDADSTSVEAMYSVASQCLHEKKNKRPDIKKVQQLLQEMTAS
Type: biochemical
Method: Compounds were assayed for inhibition of human IRAK4 and IRAK1 catalytic activity using recombinant enzyme produced from insect cells. Full-length IRAK4 protein, carrying an N-terminal His6-Tag, was obtained from Life Technologies (Carlsbad, Calif., USA). The IRAK1 construct was produced internally and was comprised of IRAK1 residues Arg194 to Ser712, preceded by an NH2-terminal His6 tag and the coding sequence for glutathione-S-transferase.
`C[C@H](O)CN1CCN(c2cc3c(cc2NC(=O)c2cnn4cccnc24)CC(C)(C)O3)CC1` [Example 474, (S)-N-(6-(4-(2-hydroxypropyl)piperazin-1-yl)-2,2-dimethyl-2,3-dihydrobenzofuran-5-yl)pyrazolo[1,5-a]pyrimidine-3-carboxamide] showed a Ki of 0.02 µM.
`CC1(C)Cc2cc(NC(=O)c3cnn4cccnc34)c(N3CCC4(CC3)CNC4=O)cc2O1` [Example 111, N-[2,2-dimethyl-6-(3-oxo-2,7-diazaspiro[3.5]nonan-7-yl)-3H-benzofuran-5-yl]pyrazolo[1,5-a]pyrimidine-3-carboxamide] showed a Ki of 0.0048 µM.
Work on `C[C@@]1(CO)CCc2cc(NC(=O)c3cnn4cccnc34)c(N3CCOCC3)cc2O1` (single isomer, unassigned) [Example 436] yielded a Ki of 0.01 µM.
`CC1(C)Cc2cc(NC(=O)c3cnn4cccnc34)c(N3CCc4cncn4CC3)cc2O1` [Example 101, N-[2,2-dimethyl-6-(5,6,8,9-tetrahydroimidazo[1,5-d][1,4]diazepin-7-yl)-3H-benzofuran-5-yl]pyrazolo[1,5-a]pyrimidine-3-carboxamide] showed a Ki of 0.032 µM.
Compound `CC1(C)Cc2cc(NC(=O)c3cnn4cccnc34)c(N3C[C@@H]4[C@H](C3)[C@H]4C(N)=O)cc2O1` [Example 186, N-[6-[(1S,5R)-6-carbamoyl-3-azabicyclo[3.1.0]hexan-3-yl]-2,2-dimethyl-3H-benzofuran-5-yl]pyrazolo[1,5-a]pyrimidine-3-carboxamide] has a Ki of 0.015 µM.
With `CC(C)(O)[C@@]1(C)Cc2cc(NC(=O)c3cnn4cccnc34)c(N3CCN(Cc4c[nH]cn4)CC3)cc2O1` [Example 522, N-[(2R)-2-(1-Hydroxy-1-methyl-ethyl)-6-[4-(1H-imidazol-4-ylmethyl)piperazin-1-yl]-2-methyl-3H-benzofuran-5-yl]pyrazolo[1,5-a]pyrimidine-3-carboxamide] the Ki was 0.0034 µM.
Work on `C[C@@]1(CO)Cc2cc(NC(=O)c3cnn4cccnc34)c(N3CCC([C@](C)(O)C(F)(F)F)CC3)cc2O1` [Example 412, N—((S)-2-(hydroxymethyl)-2-methyl-6-(4-((S)-1,1,1-trifluoro-2-hydroxypropan-2-yl)piperidin-1-yl)-2,3-dihydrobenzofuran-5-yl)pyrazolo[1,5-a]pyrimidine-3-carboxamide] yielded a Ki of 0.0059 µM.
`CC1(C)Cc2cc(NC(=O)c3cnn4cccnc34)c(N3CCC4(CCOC4)CC3)cc2O1` [Example 106, N-(2,2-dimethyl-6-(2-oxa-8-azaspiro[4.5]decan-8-yl)-2,3-dihydrobenzofuran-5-yl)pyrazolo[1,5-a]pyrimidine-3-carboxamide] gave a Ki of 0.0024 µM.
In the case of `C[C@]1(CO)Cc2cc(NC(=O)c3cnn4cccnc34)c(C(F)(F)F)cc2O1` [Example 71, N-[(2R)-2-(Hydroxymethyl)-2-methyl-6-(trifluoromethyl)-3H-benzofuran-5-yl]pyrazolo[1,5-a]pyrimidine-3-carboxamide], the Ki is reported as 0.92 µM.
`C[C@]1(CCO)Cc2cc(NC(=O)c3cnn4cccnc34)c(N3CCOCC3)cc2O1` [Example 388, (R)—N-(2-(2-hydroxyethyl)-2-methyl-6-morpholino-2,3-dihydrobenzofuran-5-yl)pyrazolo[1,5-a]pyrimidine-3-carboxamide] was tested, and the Ki was 0.012 µM.
In the case of `C[C@]1(CO)Cc2cc(NC(=O)c3cnn4cccnc34)c(N3CCC(F)(CO)CC3)cc2O1` (single isomer, unassigned) [Example 44], the Ki is reported as 0.0017 µM.
Compound `CC1(C)Cc2cc(NC(=O)c3cnn4cccnc34)c(N3CCCC(c4ncc[nH]4)C3)cc2O1` (centres unmarked) [Example 202, N-(6-(3-(1H-imidazol-2-yl)piperidin-1-yl)-2,2-dimethyl-2,3-dihydrobenzofuran-5-yl)pyrazolo[1,5-a]pyrimidine-3-carboxamide] has a Ki of 0.69 µM.
`C[C@]1(CO)Cc2cc(NC(=O)c3cnn4cccnc34)c(N3CC[C@@H](F)C3)cc2O1` [Example 58, N-[(2R)-6-[(3R)-3-Fluoropyrrolidin-1-yl]-2-(hydroxymethyl)-2-methyl-3H-benzofuran-5-yl]pyrazolo[1,5-a]pyrimidine-3-carboxamide] was tested, and the Ki was 0.036 µM.
In the case of `CC1(C)Cc2cc(NC(=O)c3cnn4cccnc34)c([C@@H]3C[C@H]3C(N)=O)cc2O1` [Example 396, N-(6-((1R,2R)-2-Carbamoylcyclopropyl)-2,2-dimethyl-2,3-dihydrobenzofuran-5-yl)pyrazolo[1,5-a]pyrimidine-3-carboxamide], the Ki is reported as 0.11 µM.
`C[C@]1(O)COc2cc(N3CCC(n4ccnc4)CC3)c(NC(=O)c3cnn4cccnc34)cc2C1` [Example 428, (R)-N-(7-(4-(1H-imidazol-1-yl)piperidin-1-yl)-3-hydroxy-3-methylchroman-6-yl)pyrazolo[1,5-a]pyrimidine-3-carboxamide] was tested, and the Ki was 0.075 µM.
`CC1(C)Cc2cc(NC(=O)c3cnn4cc(C(F)(F)F)cnc34)c(N3CCOCC3)cc2O1` [Example 69, N-(2,2-Dimethyl-6-morpholino-2,3-dihydrobenzofuran-5-yl)-6-(trifluoromethyl)pyrazolo[1,5-a]pyrimidine-3-carboxamide] gave a Ki of 0.027 µM.
For `C[C@]1(CO)Cc2cc(NC(=O)c3cnn4cc(F)cnc34)c(N3CCOCC3)cc2O1` [Example 54, (R)-6-Fluoro-N-(2-(hydroxymethyl)-2-methyl-6-morpholino-2,3-dihydrobenzofuran-5-yl)pyrazolo[1,5-a]pyrimidine-3-carboxamide], the Ki was 0.016 µM.
Work on `CC1(C)Cc2cc(NC(=O)c3cnn4cccnc34)c(OC3CN(CCO)C3)cc2O1` [Example 446, N-(6-((1-(2-hydroxyethyl)azetidin-3-yl)oxy)-2,2-dimethyl-2,3-dihydrobenzofuran-5-yl)pyrazolo[1,5-a]pyrimidine-3-carboxamide] yielded a Ki of 0.052 µM.
Work on `CC(C)(O)[C@H](F)CN1Cc2cc(NC(=O)c3cnn4cccnc34)c(N3CCC(C#N)CC3)cc2C1=O` [Example 274, (R)-N-(6-(4-cyanopiperidin-1-yl)-2-(2-fluoro-3-hydroxy-3-methylbutyl)-1-oxoisoindolin-5-yl)pyrazolo[1,5-a]pyrimidine-3-carboxamide] yielded a Ki of 0.0014 µM.
Work on `CC1(C)Cc2cc(NC(=O)c3cnn4cccnc34)c(N3CCOCC3)cc2C1=O` [Example 499, N-(2,2-Dimethyl-6-morpholino-1-oxo-2,3-dihydro-1H-inden-5-yl)pyrazolo[1,5-a]pyrimidine-3-carboxamide] yielded a Ki of 0.03 µM.
With `CC(C)N1Cc2cc(NC(=O)c3cnn4cccnc34)c(N3CCOCC3)cc2C1=O` [Example 138, N-(2-Isopropyl-6-morpholino-1-oxoisoindolin-5-yl)pyrazolo[1,5-a]pyrimidine-3-carboxamide] the Ki was 0.0068 µM.
For `O=C(Nc1cc2c(cc1N1CCOCC1)C(=O)N(CC(F)(F)CO)C2)c1cnn2cccnc12` [Example 273, N-[2-(2,2-Difluoro-3-hydroxy-propyl)-6-morpholino-1-oxo-isoindolin-5-yl]pyrazolo[1,5-a]pyrimidine-3-carboxamide], the Ki was 0.037 µM.
With `CC1(C)Cc2cc(NC(=O)c3cnn4cccnc34)c(OCc3cccnc3)cc2O1` [Example 297, N-(2,2-Dimethyl-6-(pyridin-3-ylmethoxy)-2,3-dihydrobenzofuran-5-yl)pyrazolo[1,5-α]pyrimidine-3-carboxamide] the Ki was 0.023 µM.
Work on `O=C(Nc1cc2c(cc1N1CCOCC1)C(=O)N(CCO)C2)c1cnn2cccnc12` [Example 179, N-[2-(2-hydroxyethyl)-6-morpholino-1-oxo-isoindolin-5-yl]pyrazolo[1,5-a]pyrimidine-3-carboxamide] yielded a Ki of 0.031 µM.
`CC1(C)Cc2cc(NC(=O)c3cnn4cccnc34)c(OCC3CCOC3)cc2O1` (stereo not drawn) [Example 296, N-(2,2-Dimethyl-6-((tetrahydrofuran-3-yl)methoxy)-2,3-dihydrobenzofuran-5-yl)pyrazolo[1,5-α]pyrimidine-3-carboxamide] showed a Ki of 0.018 µM.
In the case of `C[C@@H](N)CN1CCN(c2cc3c(cc2NC(=O)c2cnn4cccnc24)CC(C)(C)O3)CC1` [Example 477, N-[6-[4-[(2R)-2-Aminopropyl]piperazin-1-yl]-2,2-dimethyl-3H-benzofuran-5-yl]pyrazolo[1,5-a]pyrimidine-3-carboxamide], the Ki is reported as 0.035 µM.
`CCn1cc(COc2cc3c(cc2NC(=O)c2cnn4cccnc24)CC(C)(C)O3)cn1` [Example 448, N-(6-((1-ethyl-1H-pyrazol-4-yl)methoxy)-2,2-dimethyl-2,3-dihydrobenzofuran-5-yl)pyrazolo[1,5-a]pyrimidine-3-carboxamide] showed a Ki of 0.024 µM.
Compound `CC1(CO)Cc2cc(NC(=O)c3cnn4cc(C(F)F)cnc34)c(N3CCOCC3)cc2O1` (centres unmarked) [Example 75, 6-(Difluoromethyl)-N-[2-(hydroxymethyl)-2-methyl-6-morpholino-3H-benzofuran-5-yl]pyrazolo[1,5-a]pyrimidine-3-carboxamide] has a Ki of 0.065 µM.
In the case of `CN1CCN(c2cc3c(cc2NC(=O)c2cnn4cccnc24)CC(C)(C)O3)CC(O)C1` (centres unmarked) [Example 224, N-[6-(6-hydroxy-4-methyl-1,4-diazepan-1-yl)-2,2-dimethyl-3H-benzofuran-5-yl]pyrazolo[1,5-a]pyrimidine-3-carboxamide], the Ki is reported as 0.33 µM.
For `CN1CC[C@H](N2Cc3cc(NC(=O)c4cnn5cccnc45)c(N4CCOCC4)cc3C2=O)C1=O` [Example 554, N-[2-[(3S)-1-methyl-2-oxo-pyrrolidin-3-yl]-6-morpholino-1-oxo-isoindolin-5-yl]pyrazolo[1,5-a]pyrimidine-3-carboxamide], the Ki was 0.014 µM.
Work on `CC1(C)Cc2cc(NC(=O)c3cnn4cccnc34)c(N3CCN(C(C)(C)C(N)=O)CC3)cc2O1` [Example 226, N-(6-(4-(1-Amino-2-methyl-1-oxopropan-2-yl)piperazin-1-yl)-2,2-dimethyl-2,3-dihydrobenzofuran-5-yl)pyrazolo[1,5-a]pyrimidine-3-carboxamide] yielded a Ki of 0.006 µM.
`C[C@@]1(C(F)F)Cc2cc(NC(=O)c3cnn4cccnc34)c(N3CCOCC3)cc2O1` [Example 51, (S)—N-(2-(Difluoromethyl)-2-methyl-6-morpholino-2,3-dihydrobenzofuran-5-yl)pyrazolo[1,5-a]pyrimidine-3-carboxamide] showed a Ki of 0.0096 µM.
